Measurements from paper PMC9646721, “Alkaloid binding to opium poppy major latex proteins triggers structural modification and functional aggregation” (Nature Communications, 2022).
Several values for one entry are separate records, joined by “and”; a condition that tells them apart may be missing. Equal values may be shown once.

Key:
NISO [1] = target: T1, NISO (Papaver somniferum, UniProt P0DYP9); experiment: Isothermal titration calorimetry; assay type: binding; design: made in house; host or cells: E. coli ArcticExpress (DE3); conditions: ITC, PBS pH 7.4, 25 °C; for N / Kd: single-site model
Procedure: (§1) ITC experiments were conducted using a Microcal VP instrument (Malvern Pananalytical, Malvern, UK). […] Eluates were twice dialysed to equilibrium (i.e., 10–12 h at 4 °C) against a 1000-fold (2–4 L) volume of PBS, pH 7.4 (25 mM sodium phosphate, 50 mM NaCl) or CBS, pH 5.5, resulting in a theoretical million-fold dilution of undesired small molecules (e.g., <0.2 µM imidazole). Dialysis was carried out in boiled Spectra/Por 1 6–8 kDa MWCO 0.32 ml/cm (Spectrum Labs, USA) tubing thoroughly washed with either buffer before use. The second 1000-fold volume of dialysis buffer was filtered and degassed using a reusable bottle-top filtration apparatus (Nalgene, USA) with disposable […] cellulose filters (VWR, Canada) prior to storage at 4 °C. Ligands were dissolved in the filtered dialysis buffer at 21 °C for approximately one hour, and any insoluble material was removed by repeated centrifugation at 21,000 × g for 10 min. […] Prior to ITC, which was initiated immediately following dialysis, the protein solutions were centrifuged at 17,000 × g and 4 °C for 30 min. Any precipitate was separated from the remaining soluble protein fraction which was quantified by absorption at A280nm and diluted with filtered dialysis buffer immediately before use.
(§2) Thermograms were recorded at 25 °C, with a reference power of 10 (dpu/sec) and monitoring of 30 injections of 9 µl BIA ligand solutions into a sample cell containing 1.4 ml of an MLP/PR10 protein solution, with 300 seconds between injections. […] To ensure that we report only the heat of reaction for each interaction, independent titrations of ligand into buffer, and buffer into protein solutions, were used to calculate and then subtract heats of dilution. After subtraction, binding isotherms were analyzed in MicroCal Origin 7 (MicroCal, USA) by fitting a single-site binding model using non-linear least squares regression analysis repeated until convergence. […] Each ITC experiment was repeated 2 to 4 times.

THS2 = THS2 (Papaver somniferum, UniProt A0A2U9GGW3); experiment: Isothermal titration calorimetry; assay type: binding; design: made in house; host or cells: E. coli ArcticExpress (DE3); conditions: ITC, PBS pH 7.4, 25 °C; for N / Kd: single-site model
Procedure: as §1, §2

NISO [2] = target: T1, NISO; experiment: ANS displacement assay; conditions: for IC50: IC50, NISO; for IC50 / Log10IC50: 10 µM protein and 10 µM ANS, CBS pH 5.5; for Log10IC50 / Hill Slope: NISO; for Hill Slope: ANS displacement dose-response fit
Procedure: (§5) 8-anilino-1-naphthalenesulfonic acid (ANS) fluorescence binding curves and the binding-induced reduction in ANS fluorescence resulting from competition with tested ligands across a range of concentration facilitated the measurement of IC50 and an estimate of Kd values using the binding models and procedures described previously[70]. […] ANS was dissolved in dimethylsufoxide at a concentration of 20 mM, stored at −20 °C until dilution and protected from exposure to light. […] 40 µl of the ANS solution and 40 µl of each MLP/PR10 protein solution were combined to 80 µl final reaction volumes, which were incubated at 21 °C for 10 min to allow equilibration of binding. Triplicate 18-µl aliquots were withdrawn from each 80 µl reaction, transferred to optically clear PCR tubes (Diamed, Canada) and ANS fluorescence was measured following an additional 3-min incubation at 30 °C using a Qiagen Rotor-gene Q 6-plex with excitation and emission filters of 365 ± 20 nm and 460 ± 20 nm, respectively. An identical reaction series whereby protein was omitted from the mixtures was measured under identical conditions and trace fluorescence was subtracted from each MLP/PR10 protein-containing sample. Each data set was scaled so that the maximum observed fluorescence corresponded to 100% and individual data points were plotted, and a rectangular hyperbolic ligand binding function was fit, using least-squares analysis (Prism 5 software, Graphpad, USA). Experiments were repeated at least twice with independently prepared protein.
(§6) Displacement of ANS is associated with reduced fluorescence. […] Briefly, 40 µl of 20 µM ANS and individual MLP/ PR10 protein solutions were combined in CBS buffer, pH 5.5, incubated at 21 °C for 5 min, mixed with 40 µl of separate 0 to 6 mM BIA solutions in CBS buffer, pH 5.5, and the 80 µl reactions were subsequently incubated for 10 min at 21 °C. Fluorescence was measured as described above, including subtraction of any fluorescence in a blank series whereby protein was omitted. […] Each experiment was repeated at least twice with independently prepared MLP/PR10 proteins and BIA ligand.

PR10-12 [3] = experiment: Isothermal titration calorimetry; assay type: binding, Papaver somniferum; conditions: ITC, PBS pH 7.4, 25 °C, single-site model
Procedure: ITC experiments were conducted using a Microcal VP instrument (Malvern Pananalytical, Malvern, UK). Recombinant MLP/PR10 protein preparation involving production in Escherichia coli followed by cobalt-affinity chromatography was optimized to yield relatively high purity in a single step as determined by SDS-PAGE and colloidal Coomassie blue silver staining. The less than 48 h decrease in atmospheric oxygen exposure generated high-quality proteins with reduced precipitate. […] Eluates were twice dialysed to equilibrium (i.e., 10–12 h at 4 °C) against a 1000-fold (2–4 L) volume of PBS, pH 7.4 (25 mM sodium phosphate, 50 mM NaCl) or CBS, pH 5.5, resulting in a theoretical million-fold dilution of undesired small molecules (e.g., <0.2 µM imidazole). Dialysis was carried out in boiled Spectra/Por 1 6–8 kDa MWCO 0.32 ml/cm (Spectrum Labs, USA) tubing thoroughly washed with either buffer before use. The second 1000-fold volume of dialysis buffer was filtered and degassed using a reusable bottle-top filtration apparatus (Nalgene, USA) with disposable […] cellulose filters (VWR, Canada) prior to storage at 4 °C. Ligands were dissolved in the filtered dialysis buffer at 21 °C for approximately one hour, and any insoluble material was removed by repeated centrifugation at 21,000 × g for 10 min. No change in pH occurred following substrate addition. Prior to ITC, which was initiated immediately following dialysis, the protein solutions were centrifuged at 17,000 × g and 4 °C for 30 min. Any precipitate was separated from the remaining soluble protein fraction which was quantified by absorption at A280nm and diluted with filtered dialysis buffer immediately before use.
as §2, with “injections. Protein concentrations varied from 10 to 150 µM to achieve an optimal C value and curve shape valid for parameter calculation.” for “injections.”

MLP2 = experiment: ANS displacement assay; assay type: binding, Papaver somniferum; conditions: for IC50 / Log10IC50: 10 µM protein and 10 µM ANS, CBS pH 5.5; for Kd: from average IC50 and PR10-ANS Kd, competitive inhibition assumed, read-out: Estimated Kd
Excerpt: (§3) Eluates were store separately on ice.
(§4) Displacement of ANS is associated with reduced fluorescence.

PR10-12 [4] = experiment: ANS displacement assay; assay type: binding, Papaver somniferum; conditions: for IC50 / Log10IC50: 10 µM protein and 10 µM ANS, CBS pH 5.5; for Kd: from average IC50 and PR10-ANS Kd, competitive inhibition assumed, read-out: Estimated Kd
Excerpt: as §3, §4

PR10-4 = experiment: ANS displacement assay; assay type: binding, Papaver somniferum
Excerpt: as §3, §4

MLP15 = target: T2, MLP15 (Papaver somniferum, UniProt P19825); experiment: ANS displacement assay; conditions: for IC50: IC50, MLP15; for IC50 / Log10IC50: 10 µM protein and 10 µM ANS, CBS pH 5.5; for Log10IC50 / Hill Slope: MLP15; for Hill Slope: ANS displacement dose-response fit
T2 sequence (P19825 1-159): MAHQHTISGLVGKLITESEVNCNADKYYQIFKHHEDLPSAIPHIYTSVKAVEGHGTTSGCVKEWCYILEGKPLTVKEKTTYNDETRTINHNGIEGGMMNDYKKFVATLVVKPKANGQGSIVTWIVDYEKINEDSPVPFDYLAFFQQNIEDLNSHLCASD
Procedure: as §5, §6

PR10-10 = target: T3, PR10-10 (Papaver somniferum, UniProt A0A9Y2YA81); experiment: ANS displacement assay; assay type: binding; conditions: ANS displacement dose-response fit
T3 sequence (A0A9Y2YA81 1-158): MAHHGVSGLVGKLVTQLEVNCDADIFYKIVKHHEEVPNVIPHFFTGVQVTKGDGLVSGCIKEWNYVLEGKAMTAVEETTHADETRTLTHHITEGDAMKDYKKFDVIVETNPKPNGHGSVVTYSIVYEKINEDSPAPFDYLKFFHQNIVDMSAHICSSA
Excerpt: as §3, §4

[5] = 10 µM protein and 10 µM ANS, CBS pH 5.5

T1 sequence (P0DYP9 entry or part of it): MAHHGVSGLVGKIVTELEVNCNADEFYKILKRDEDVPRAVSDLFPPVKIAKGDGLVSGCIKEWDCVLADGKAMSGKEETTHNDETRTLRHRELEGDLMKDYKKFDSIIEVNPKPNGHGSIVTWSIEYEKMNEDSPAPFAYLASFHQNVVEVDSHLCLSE
THS2, sequence (A0A2U9GGW3 whole entry): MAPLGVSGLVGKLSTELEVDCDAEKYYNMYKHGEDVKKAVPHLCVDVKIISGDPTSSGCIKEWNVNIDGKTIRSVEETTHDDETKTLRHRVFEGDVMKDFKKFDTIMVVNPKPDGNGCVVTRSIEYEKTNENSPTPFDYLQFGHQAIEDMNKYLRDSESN

| Compound | ΔH (NISO [1]) [kcal/mol] | ΔS (NISO [1]) [cal/mol/˚K] | N (NISO [1]) | Kd (NISO [1]) | ΔH (THS2) [kcal/mol] | ΔS (THS2) [cal/mol/˚K] | N (THS2) | Kd (THS2) | Kd (NISO [2]) [µM] | IC50 (NISO [2]) | Log10IC50 (NISO [2]) | Hill Slope (NISO [2]) | Kd (PR10-12 [3]) [µM] | IC50 (MLP2) [µM] | Log10IC50 (MLP2) | Kd (MLP2) [µM] | IC50 (PR10-12 [4]) [µM] | Log10IC50 (PR10-12 [4]) | Kd (PR10-12 [4]) [µM] | Kd (MLP15) [µM] | other results |
| --- | --- | --- | --- | --- | --- | --- | --- | --- | --- | --- | --- | --- | --- | --- | --- | --- | --- | --- | --- | --- | --- |
| COC1=CC=C2[C@H]3Cc4ccc(OC)c5c4[C@@]2(CCN3C)[C@H]1O5 [Thebaine, thebaine] | -2.396 ± 0.1109 | 13.6 | 0.786 ± 0.0251 | 18 µM and 18.2 µM | 2.45 ± 0.09784 | 28.8 | 0.523 ± 0.0156 | 31 µM and 31.2 µM | 171 | 199 µM and 200 µM | 2.30 ± 0.14 | 0.92 ± 0.16 | 21.6 ± 0.71 | 394 | 2.60 ± 0.20 | 292 | 445 | 2.65 ± 0.21 | 432 | 612 | Kd (PR10-12 [3]; listed as thebaine): 22 µM; IC50 (PR10-4; [5]): 2570 µM; Log10IC50 (PR10-4; [5]): 3.41 ± 1.42; Kd (PR10-4; from average IC50 and PR10-ANS Kd, competitive inhibition assumed, read-out: Estimated Kd): 2350 µM; IC50 (MLP15): 690 µM; Log10IC50 (MLP15): 2.84 ± 0.23; Hill Slope (MLP15): -1.05 ± 0.19 |
| COc1ccc2c3c1O[C@H]1[C@@H](O)C=C[C@H]4[C@@H](C2)N(C)CC[C@@]341 [Codeine, codeine] | -3.556 ± 0.02607 | 13.9 | 1.07 ± 0.00547 | 2 µM and 2.22 µM | 1.868 ± 0.0686 | 27.2 | 0.51 ± 0.0145 | 26 µM and 26.5 µM | 24.2 | 28 µM and 28.2 µM | 1.45 ± 0.13 | -0.72 ± 0.13 | 140 ± 13.6 | 203 | 2.31 ± 0.14 | 151 | 1500 | 3.18 ± 0.36 | 1460 | 931 | Hill Slope (PR10-10): ~ 0.13 ± 0.35; Kd (PR10-12 [3]; listed as codeine): 140 µM; IC50 (MLP15): 1050 µM; Log10IC50 (MLP15): 3.02 ± 0.17; Hill Slope (MLP15): -0.97 ± 0.13 |
